Data taken from patent US9951055B2, “Thiazole-based inhibitors of scavenger receptor BI” (THE BROAD INSTITUTE, INC., priority 2012, dated 2018).

Experiment: Stability in PBS
Type: physicochemical
Conditions: PBS (1% DMSO), over 48 hours
Description: The stability of the probe in PBS (1% DMSO) was measured over 48 hours. We noticed that the concentration of the probe fluctuated through the course of the assay (data not shown). We believe that this fluctuation is due to the low solubility of the probe. Thus, we decided to determine the amount of undissolved probe present in the well after it was treated with PBS for a given length of time, relative to the amount of undissolved probe at the start of the assay. The wells were centrifuged and the supernatant was removed after various time points, then acetonitrile was added to dissolve the remaining solid in the wells, and the amount of probe was quantified. […] The stability of the probe was confirmed by measuring stability in human plasma, with >99% remaining after a 5-hour incubation period. […] FIG. 5 provides a tablular summary of Known Probe (ML278) Properties Computed from Structure.

**Q.** For COCC(=O)N1CCc2cc(-c3csc(NC(=O)c4cc(OC)cc(OC)c4)n3)ccc21 [Compound 137, 3,5-Dimethoxy-N-(4-(1-(2-methoxyacetyl)indolin-5-yl)thiazol-2-yl)benzamide], which “stability in PBS” value is on record?
**A.** Its value is “stable to PBS”.
